# Values of other authors, collected in paper PMC12557437, “Research towards selective inhibition of the CLK3 kinase” (Beilstein Journal of Organic Chemistry, 2025).
# Tests used:
# CLK3 [1] = settings: human protein kinase; ref 17 (SM08502), 19 (T3), 20-21 (CX-4945), 24 (DB18); cited from earlier work
# DYRK1A [2] = settings: human protein kinase; ref 17 (SM08502), 19 (T3), 20-21 (CX-4945), 24 (DB18); cited from earlier work
# CLK4 [3] = settings: human protein kinase; ref 17 (SM08502), 20-21 (CX-4945), 24 (DB18); cited from earlier work
# CLK2 [4] = settings: human protein kinase; ref 17 (SM08502), 19 (T3), 20-21 (CX-4945), 24 (DB18); cited from earlier work
# DYRK1B [5] = tested on: DYRK1B; design: method as in earlier work; settings: human protein kinase; ref 17 (SM08502), 19 (T3); cited from earlier work
# DYRK2 [6] = tested on: DYRK2; design: method as in PMID 31560935; settings: human protein kinase; cited from earlier work
# CLK1 [7] = settings: human protein kinase; ref 17 (SM08502), 19 (T3), 20-21 (CX-4945), 24 (DB18); cited from earlier work
# CLK3 [8] = molecular target: CLK3; design: method as in PMID 29769258; settings: human protein kinase; cited from earlier work
# CLK1 [9] = molecular target: CLK1; design: method as in PMID 29769258; settings: human protein kinase; cited from earlier work
# CLK2 [10] = molecular target: CLK2; design: method as in PMID 29769258; settings: human protein kinase; cited from earlier work
# CLK4 [11] = molecular target: CLK4; design: method as in PMID 29769258; settings: human protein kinase; cited from earlier work
# DYRK1A [12] = molecular target: DYRK1A; design: method as in PMID 29769258; settings: human protein kinase; cited from earlier work
# DYRK2 [13] = molecular target: DYRK2; design: method as in PMID 29769258; settings: human protein kinase; cited from earlier work
# DYRK1B [14] = molecular target: DYRK1B; design: method as in PMID 29769258; settings: human protein kinase; cited from earlier work
# Mm_CLK4 = Mm_CLK4 (Mus musculus, UniProt O35493); settings: data taken from ref 23-24; cited from earlier work
# Rn_DYRK1A = Rn_DYRK1A (Rattus norvegicus, UniProt Q63470); settings: data taken from ref 23-24; cited from earlier work
# Chain of Mm_CLK4 (O35493 whole entry): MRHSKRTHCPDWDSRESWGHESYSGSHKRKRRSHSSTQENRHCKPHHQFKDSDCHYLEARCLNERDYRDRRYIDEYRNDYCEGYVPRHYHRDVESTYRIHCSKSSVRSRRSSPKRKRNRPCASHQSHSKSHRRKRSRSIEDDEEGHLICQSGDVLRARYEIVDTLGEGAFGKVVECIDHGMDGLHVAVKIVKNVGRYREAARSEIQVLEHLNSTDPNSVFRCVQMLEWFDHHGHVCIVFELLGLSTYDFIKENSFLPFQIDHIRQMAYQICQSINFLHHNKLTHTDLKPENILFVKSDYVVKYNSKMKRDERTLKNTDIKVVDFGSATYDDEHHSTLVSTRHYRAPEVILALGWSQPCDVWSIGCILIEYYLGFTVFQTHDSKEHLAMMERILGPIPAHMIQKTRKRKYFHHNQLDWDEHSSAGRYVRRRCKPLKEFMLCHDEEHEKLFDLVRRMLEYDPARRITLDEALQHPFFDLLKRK
smiles,measurement,setting,value
CN1CCN(c2cc(C(=O)Nc3cc4cc(-c5cnn(C)c5)ccc4cn3)ccn2)CC1 [SM08502],IC50,CLK3 [1],22 nM
same,IC50,DYRK1A [2],1 nM
same,IC50,CLK4 [3],1 nM
same,IC50,CLK1 [7],8 nM
CN1CCN(C(=O)C(C)(C)c2ccc(C(=O)Nc3cn4cc(-c5ccncc5)ccc4n3)cc2)CC1 [Compound T3],IC50,CLK3 [1],110 nM
same,IC50,DYRK1A [2],260 nM
same,IC50,CLK2 [4],15 nM
same,IC50,DYRK1B [5],230 nM
same,IC50,CLK1 [7],0.67 nM
CNc1nc(NCc2cnccn2)c2c(-c3ccc4ncccc4c3)c[nH]c2n1 [Compound T-025],Kd,CLK3 [8],6.5 nM
same,Kd,CLK1 [9],4.8 nM
same,Kd,CLK2 [10],0.096 nM
same,Kd,CLK4 [11],0.61 nM
same,Kd,DYRK1A [12],0.074 nM
same,Kd,DYRK2 [13],32 nM
same,Kd,DYRK1B [14],1.5 nM
Cc1ccc(-n2cc(COc3cccc4cnc(Nc5cccc(Cl)c5)nc34)nn2)c([N+](=O)[O-])c1 [DB18],IC50,Mm_CLK4,20 nM
same,IC50,Rn_DYRK1A,> 100000 nM
